Values joined by “and” are separate entries in the source; they are usually repeats but may differ in a detail not shown here. Equal values may be shown once. “Also recorded” adds a separate entry of the source. Ends that are not written are not given here.
System: CLP-induced polymicrobial sepsis
Test: Cecal ligation and puncture (CLP) polymicrobial sepsis model
Format: in vivo, BALB/c mice
Protocol: Polymicrobial sepsis was induced using the CLP method described by [Wendy E. Walker, 2021; Benjamim et al. 2000], with minor modifications and the anesthetic used. Initially, the Mice were derived of food for 12 h before the CLP procedure and then anesthetized by intraperitoneal injection of ketamine (80-100 mg/kg BW) and xylazine in a dose (5-10 mg/kg) (for 20 g mice ketamine of 0.2 ml and xylazine of 0.1 ml). according to [Machado et al. 2012]. under sterile conditions a midline abdominal incision was made and then, a laparotomy of 10 mm/1 cm was performed, where the abdomen of mice was routinely disinfected and cut open in the middle to expose the abdominal cavity, and the cecum was mobilized, was then ligated below the cecal valve at the distal end of the cecum, ¾ was ligated with a sterile No. 4 thread, and punctured (CLP) with a 20-gauge needle in 2 places at the center of the distal end of the occlusal cecum and squeezed gently to extrude a small amount of intestinal contents through the perforation site to induce sepsis. The cecum was located but not ligated or punctured in the control animals. The cecum was placed back into the peritoneal cavity, and the abdominal incision was then closed in two layers with absorbable ethilon suture 5.0, and the animals were resuscitated with 0.1-0.2 mL of normal saline by subcutaneous injection. The sham group of mice had the identical operation as the treated and disease control groups, which included opening the peritoneum and exposing the bowel but without ligation or needle perforation of the cecum. Betadine/tramadol was used to relieve the pain of mice after operation. During the surgery, the […] was applied to the eyes to prevent dryness of the eyes. All the animals were returned to their cages, where they had free access to food and water. After 2 h of CLP, the treatment groups were administered with test peptides (0.6 & 1.2 mg/kg) and the standard drug through the subcutaneous & Intravenous route. To reduce variability between studies, the CLP method was always carried out by the same investigators. [Zingarelli B et al., Libert C et al., Hellman J et al., 2019].
Mice were subjected to CLP surgery and were discarded if they died during the procedure. In all the animal experiments, the test peptide IS 111 was administered by injections respectively; According to the clinical dosage regimen, IS 111 was repeatedly administered at 2 h after CLP surgery and recovery of animals from anesthesia. The mice were divided into the following treatment groups at random: BALB/c mice are used for Intravenous (IV) route of administration. In each group the half of the animals were killed after 4 and 18 hours, [Hubbard, W. J 2005; Rittirsch D 2009]. In another half of the animals, IS 111 at two doses 0.6 & 1.2 mg/kg were injected IV daily for 5 days following CLP. 0.9% Normal saline was administered in the sham group. The survival of mice was monitored for up to 18 h and the other half of the animals are continued for the survival monitored up to 7 days.
In the survival study, survival rates were determined by setting the day 0 from 0 to 18 h after surgery and continuing observation until day 7. In one set of animals/group, survival was monitored every 4 h up to 18 h and in another half subset of animals was followed for 5 days for survival assessment every 12 h after sepsis induction to verify mortality rates. The time of death was recorded as accurately as possible.
The physical activity of the mice was recorded independently by two independent observers who were blinded to treatment before sampling as previously described. In this study predetermined grading system was used with a scale of 1 (healthy) to 5 (agony). This scoring system is based on grading physical activity and food intake (table 16) using spontaneous activity of mice, reactivity to external stimuli, and spontaneous food intake to differentiate between grades 1 and 5. […]

With “FAKKFAK [IS 111, Phe-Ala-Lys-Lys-Phe-Ala-Lys]” as the substance, how does the Activity index (0.6 mg/Kg, 18 h after CLP, scale 1 (very active) to 5 (lethargic)) read?
Its Activity index is 2.8 ± 0.5 Grade points.

What about the Lung histology (0.6 mg/kg, 18 h) of the same substance?
Its Lung histology is “Mild lung oedema, haemorrhage, and inflammatory cell infiltration”.

And the “Serum IL-10” value (24-48 h after CLP, treatment 2 h after CLP)?
Its value is “significant decrease”.

And the “Bacterial growth in the peritoneum / bacterial counts” value (18 h after CLP)?
The value was “inhibited; also recorded: ↓bacterial counts; ↓liver & kidney”.

And the Body temperature (18 h after CLP surgery)?
The Body temperature was “in range of normal values”.

And the “IL-10 levels in serum” value (18 h after CLP, IV)?
The value was “increased slightly and 6 and IL-12, &↑IL-10 in serum;”.

And the Survival percentage (7 days)?
The Survival percentage was 80%.

What about the “Myeloperoxidase levels in the lung” value (IS 111-treated mice) of the same substance?
Its value is “significantly decreased”.

What about the Reduction of mortality (vs diseased control animals (normal saline)) of the same substance?
Its Reduction of mortality is 80%.

What about the Mice still surviving (~60 h post-CLP (last death in disease control group)) of the same substance?
The Mice still surviving was 80%.
